Data as given in patent publication US5750553A, “Optionally substituted phenylimidazolidines, their preparation process and intermediates, their use as medicaments and the pharmaceutical compositions containing them” (Roussel Uclaf, priority 1994, dated 1998).

Legend:
[1] = system: renal ornithine decarboxylase (ODC); test: Determination of the androgen or anti-androgen activity using dosage of ornithine decarboxylase (ODC) in castrated mice receiving testosterone propionate; type: in vivo, male SWISS mice; conditions: percutaneous route, 1.5 mg/kg in 10 μl; testosterone propionate 3 mg/kg sub-cutaneous; kidneys 20 hours after treatment
Description: 2) Determination of the androgen or anti-androgen activity of the products of the invention using dosage of ornithine decarboxylase (ODC).
20 hours after the treatments, the animals are sacrificed, the kidneys are removed, then homogenized at 0° C., using a teflon glass grinder in 10 volumes of Tris-HCl 50 mM (pH 7.4) buffer containing 250 μM of pyridoxal phosphate, 0.1 mM EDTA, and 5 mM of dithiothreitol. The homogenate is then centrifuged at 209,000 g for 30 minutes.
At 37° C., renal ornithine decarboxylase converts an isotopic mixture of unlabelled ornithine and tritiated ornithine into unlabelled putrescine and tritiated putrescine.
The putrescine is then collected on selective ion-exchange papers. After drying, the excess unconverted tritiated and unlabelled ornithine is eliminated by washing 3 times with 0.1M of ammonium hydroxide. The papers are dried, then the radioactivity is counted after addition of scintillating Aqualite.
The results are expressed as fmoles (10^-15 M) of tritiated putrescine formed/hour/mg of proteins.
Test: the products are administered by percutaneous route at 1.5 mg/kg in a volume of 10 μl.

[2] = target: T1, androgen receptor (Rattus norvegicus, UniProt P15207); test: Study of the affinity of the products of the invention for the androgen receptor (displacement of tritiated testosterone, rat prostate cytosol); type: binding, Male Sprague Dawley EOPS rats; conditions: Incubation: 24 hours, 0° C., RBA=100 (CH)/(CX), testosterone = 100
T1 construct: the prostates are removed, weighed and homogenized at 0° C; from tissue; host or cells: prostate cytosol (209,000 g supernatant) of castrated male Sprague Dawley rats
T1 sequence (P15207 1-902): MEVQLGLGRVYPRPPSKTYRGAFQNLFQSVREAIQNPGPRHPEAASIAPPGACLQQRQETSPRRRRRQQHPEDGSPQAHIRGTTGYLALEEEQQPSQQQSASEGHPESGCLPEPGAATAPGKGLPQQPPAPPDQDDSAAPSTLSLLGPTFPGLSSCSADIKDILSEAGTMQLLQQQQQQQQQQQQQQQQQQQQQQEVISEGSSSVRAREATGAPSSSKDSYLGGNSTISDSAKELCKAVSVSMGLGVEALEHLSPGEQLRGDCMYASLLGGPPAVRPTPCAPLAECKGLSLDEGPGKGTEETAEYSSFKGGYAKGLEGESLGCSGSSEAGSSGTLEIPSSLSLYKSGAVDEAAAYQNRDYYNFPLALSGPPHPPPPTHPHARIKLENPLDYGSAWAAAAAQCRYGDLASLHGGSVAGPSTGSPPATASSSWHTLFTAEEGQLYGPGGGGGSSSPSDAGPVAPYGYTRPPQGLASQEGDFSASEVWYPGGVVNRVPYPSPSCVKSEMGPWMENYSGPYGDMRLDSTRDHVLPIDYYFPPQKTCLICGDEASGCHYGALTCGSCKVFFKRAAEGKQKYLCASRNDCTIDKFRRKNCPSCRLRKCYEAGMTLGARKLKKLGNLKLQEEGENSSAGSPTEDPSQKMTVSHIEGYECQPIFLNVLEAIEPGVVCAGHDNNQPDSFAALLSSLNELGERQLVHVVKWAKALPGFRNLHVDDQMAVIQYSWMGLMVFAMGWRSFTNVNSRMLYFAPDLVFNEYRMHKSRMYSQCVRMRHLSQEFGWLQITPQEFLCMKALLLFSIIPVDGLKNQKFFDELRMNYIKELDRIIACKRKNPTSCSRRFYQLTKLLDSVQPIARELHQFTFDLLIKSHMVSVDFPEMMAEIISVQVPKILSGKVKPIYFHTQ
Description: 1) Study of the affinity of the products of the invention for the androgen receptor
Male Sprague Dawley EOPS rats weighing 180-200 g, castrated 24 hours previously, are sacrificed, the prostates are removed, weighed and homogenized at 0° C. using a Potter glass, in a buffered solution (10 mM Tris, 0.25M saccharose, 0.1 mM PMSF (phenylmethanesulphonylfluoride), 20 mM sodium molybdate, HCl pH 7.4) to which is added extemporaneously 2 mM of DTT (DL dithiothreitol), at the rate of 1 g of tissue per 8 ml of buffer.
The homogenate is then ultracentrifuged at 0° C., for 30 minutes at 209,000 g. […] Calculation of the relative bond affinity (RBA).
The following 2 curves are drawn: the percentage of the bound tritiated hormone B/T as a function of the logarithm of the concentration of the unlabelled reference hormone and B/T as a function of the logarithm of the concentration of the unlabelled product tested. The straight line of the equation I50 =(B/Tmax+B/Tmin)/2 is determined. B/Tmax=% of the bound tritiated hormone for an incubation of this tritiated hormone at the concentration (T). B/Tmin=% of the bound tritiated hormone for an incubation of this tritiated hormone at the concentration (T) in the presence of a large excess of unlabelled hormone (2500.10^-9 M).
The intersections of the straight line I50 and the curves enable the concentrations of the unlabelled reference hormone (CH) and of the unlabelled tested product (CX) which inhibit by 50% the binding of the tritiated hormone on the receptor to be evaluated.

Compound	% of inhibition of the ODC of the controls receiving only testosterone propionate [1]	relative bond affinity (RBA) [2]
CN1C(=O)N(c2ccc(C#N)c(C(F)(F)F)c2)C(=O)C1(C)CF (centres unmarked) [Example 6]	84%	16
CC1(CO)C(=O)N(c2ccc(C#N)c(C(F)(F)F)c2)C(=O)N1CCF (centres unmarked) [Example 3, 4-(2,5-dioxo 3-(2-fluoroethyl) 4-(hydroxymethyl) 4-methyl 1-imidazolidinyl)2-(trifluoromethyl) benzonitrile]	47%	6
N#Cc1ccc(N2C(=O)NC(CO)(CO)C2=O)cc1C(F)(F)F [Example 26, 4-(4,4-bis(hydroxymethyl)-2,5-dioxo-1-imidazolidinyl)-2-(trifluoromethyl)-benzonitrile]	–	4
